Series [1] has as its target T1, recombinant human 5HT6 receptor (Homo sapiens, UniProt P50406).
T1 construct: purchased Receptor Biology; host or cells: HEK-293
Put plainly: Binding to the 5HT6 serotonin receptor ([3H]-LSD, HEK-293 cell membranes). As for the experimental part: Binding to the 5HT6 Serotonin Receptor
The respective part of the literature descriptions is incorporated here by reference and form part of the disclosure. […] The assays are carried out in triplicate.

T1 sequence (P50406 whole entry): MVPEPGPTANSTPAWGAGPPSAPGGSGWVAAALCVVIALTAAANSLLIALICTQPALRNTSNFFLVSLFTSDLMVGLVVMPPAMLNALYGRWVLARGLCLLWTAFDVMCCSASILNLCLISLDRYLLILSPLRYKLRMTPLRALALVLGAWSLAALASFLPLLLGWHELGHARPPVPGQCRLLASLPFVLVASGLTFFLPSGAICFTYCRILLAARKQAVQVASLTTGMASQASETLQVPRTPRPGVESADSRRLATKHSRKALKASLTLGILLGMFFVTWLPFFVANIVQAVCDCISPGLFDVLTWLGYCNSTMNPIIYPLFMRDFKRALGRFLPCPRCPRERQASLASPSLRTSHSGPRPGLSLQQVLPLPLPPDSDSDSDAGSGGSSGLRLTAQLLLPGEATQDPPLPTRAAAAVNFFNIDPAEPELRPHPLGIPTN

A word on the melting point: it is the temperature of the solid-liquid transition. The compound `O=C(CN1CCC(Nc2ccccc2CO)CC1)Nc1ccc2c(c1)CCC2=O` gave a melting point of 138 to 140 °C. The same measure, in the same setting: the result for `CN(C)CCn1ccc2cc(NS(=O)(=O)c3cccc4nsnc34)ccc21` [Example 10e, N-[1-(2-dimethylaminoethyl)-1H-indole-5-yl]-benzo[1,2,5]thiadiazole-4-sulfonamide] reads 166 to 168 °C.

Broadly, the Ki is a dissociation constant, usually derived from enzyme kinetics or from competition with a known ligand. For the compound `CCN(CC)CCc1c[nH]c2ccc(NS(=O)(=O)c3ccc4ccccc4c3)cc12` [Example 17c, N-[3-(2-diethylaminoethyl)-1H-indol-5-yl]naphthalene-2-sulphonamide], the Ki in series [1] (table 1c, compounds of general formula (Ic)) was 5.3 nM. On to `CN(C)CCn1ccc2cc(NS(=O)(=O)c3cc(Cl)c(Cl)s3)ccc21` [Example 20e, N-[1-(2-dimethylaminoethyl)-1H-indole-5-yl]-4,5-dichlorothiophene-2-sulfonamide], for which the Ki in series [1] (table 1e, compounds of general formula (Ie)) worked out at 84.8 nM.
